Experimental data published in patent publication US8409581B2, “Compounds for treating amyloidoses” (Affiris AG, priority 2008, dated 2013).
Ends that are not written are not given here.

Columns and labels:
[1] = system: monoclonal antibody MV-002; assay: In vitro binding assay (ELISA) of mimotopes to parental antibody; design: species or system mice; settings: peptide coupled to BSA bound to ELISA plates (1 μM); parental antibody MV-002
Method: 1. In Vitro Binding Assay (ELISA)
Peptides derived from Phage Display as well as variants thereof were coupled to BSA and bound to ELISA plates (1 μM; as indicated in the respective figures) and subsequently incubated with the monoclonal antibody that was used for the screening procedure to analyse binding capacity of identified peptides.

[2] = system: monoclonal antibody MV-002 binding to the original epitope; assay: In vitro inhibition assay (ELISA); design: species or system mice; settings: for Inhibition Capacity (competition code): OD at 5 ug peptide compared to original peptide, MV-002; for inhibition in in vitro inhibition/competition assay: MV-002, original epitope coated on ELISA plates
Method: 2. In Vitro Inhibition Assay (ELISA)
Different amounts of peptides (concentrations ranging from 5 μg to 0.03 μg; serial dilutions), derived from Phage Display were incubated with the monoclonal antibody that was used for the screening procedure. Peptides diminishing subsequent binding of the antibody to the original epitope coated on ELISA plates were considered as inhibiting in this assay.

[3] = system: p1454 (unrelated sequence); assay: Mimotope vaccination of mice, serum titer ELISA against irrelevant peptide; assay type: in vivo, C57/B16 mice; settings: 30 μg peptide-KLH, alum, s.c., FIG. 4
Method: (§1) Inhibiting as well as non-inhibiting peptides were coupled to KLH and injected into mice (wildtype C57/B16 mice; subcutaneous injection into the flank) together with an appropriate adjuvant (aluminium hydroxide). Animals were vaccinated 3-6 times in biweekly intervals and sera were taken biweekly as well. Titers to injected peptides, as well as to an irrelevant peptide were determined with every serum. Furthermore, titers against the recombinant human Aβ protein, and against original peptides were determined respectively. In general sera were analysed by reaction against peptides coupled to Bovine Serum Albumin (BSA) and recombinant full length proteins which were immobilised on ELISA plates. Titers were determined using anti mouse IgG specific antibodies. For detailed results see FIGS. 4, 5 and 6 respectively.
(§2) Female C57/b16 mice, 5-6 mice per group, were subcutaneously immunized with 30 μg peptide coupled to KLH. Control groups were administered original epitope-KLH conjugates respectively. As adjuvant alum was used (always 1 mg per mouse). […] The in vitro ELISA assay to determine the antibody titer was performed with sera of single mice after each vaccination in a two week interval (see FIGS. 6 and 7 respectively). Titers were calculated as OD max/2 in all figures shown. The wells of the ELISA plate were coated with mimotope-BSA conjugate and an irrelevant peptide-BSA conjugate (negative control). The positive control was performed by reaction of the parental antibody with the respective mimotope-BSA conjugate. The detection was performed with anti-mouse IgG. Additionally, recombinant proteins were immobilised on ELISA plates and sera reacted accordingly. FIGS. 4, 5 and 6 show representative examples for assays used to characterise mimotopes in vivo.

[4] = system: injected peptide; assay: Mimotope vaccination of mice, serum titer ELISA against injected peptide; assay type: in vivo, C57/B16 mice; settings: 30 μg peptide-KLH, alum, s.c., FIG. 4
Method: as §1, §2

[5] = system: original epitope p4377; assay: Mimotope vaccination of mice, serum titer ELISA against original epitope; assay type: in vivo, C57/B16 mice; settings: 30 μg peptide-KLH, alum, s.c., FIG. 5
Method: as §1, §2

Substance	Binding Capacity (binding code; OD halfmax 1:X, dilution factor of the parental AB) [1]	further results
SGQIWFRC [p4414, MV-002 mimotope peptide]	1 (weak binding :<40000)	
GEMQFFIC [p4676, MV-002 mimotope peptide]	3 (strong binding :>320000)	
SGEIYFERC [p4805, MV-002 mimotope peptide]	1 (weak binding :<40000)	
GEMWFALC [p4671, MV-002 mimotope peptide]	3 (strong binding :>320000)	
THQRLWFC [p4693, MV-002 mimotope peptide]	3 (strong binding :>320000)	
GEIRFALC [p4678, MV-002 mimotope peptide]	3 (strong binding :>320000)	
GTIFFRDC [p4692, MV-002 mimotope peptide]	1 (weak binding :<40000)	
GQLKFPFC [p4690, MV-002 mimotope peptide]	3 (strong binding :>320000)	
GEIQFGAC [p4699, MV-002 mimotope peptide]	3 (strong binding :>320000)	Inhibition Capacity (competition code) [2]: 1 (Weaker than original epitope (OD of peptide below 4, 6 times of original peptide))
GTLIFHHC [p4695, MV-002 mimotope peptide]	2 (medium binding :40000-320000)	
AIPLFVMC [p4682, MV-002 mimotope peptide]	1 (weak binding :<40000)	
GELFFEKC [p4795, MV-002 mimotope peptide]	2 (medium binding :40000-320000)	
Ac-GEIYFERC [p4804, MV-002 mimotope peptide, N-terminally acetylated]	2 (medium binding :40000-320000)	
GEIKFDHC [p4698, MV-002 mimotope peptide]	3 (strong binding :>320000)	Inhibition Capacity (competition code) [2]: 2 (strong inhibition (as original epitope; OD of peptide below 2, 3 times of original peptide))
GEIWFEGC [p4680, MV-002 mimotope peptide]	3 (strong binding :>320000)	unspecific immune response against unrelated sequence (p1454) [3]: failed to induce a relevant unspecific immune response; immune response against injected peptide [4]: elicited immune responses; immune response against the original epitope p4377 [5]: mounted detectable immune responses; inhibition in in vitro inhibition/competition assay [2]: active in in vitro inhibition assays; Inhibition Capacity (competition code) [2]: 2 (strong inhibition (as original epitope; OD of peptide below 2, 3 times of original peptide))
GQIRFDHC [p4669, MV-002 mimotope peptide]	3 (strong binding :>320000)	
GQIWFISC [p4666, MV-002 mimotope peptide]	1 (weak binding :<40000)	
GSLFFWPC [p4688, MV-002 mimotope peptide]	2 (medium binding :40000-320000)	
SGEYVFHC [p4404, MV-002 mimotope peptide]	1 (weak binding :<40000)	
GQIKFAQC [p4694, MV-002 mimotope peptide]	3 (strong binding :>320000)	
NDAKIVFC [p4667, MV-002 mimotope peptide]	3 (strong binding :>320000)	Inhibition Capacity (competition code) [2]: 1 (Weaker than original epitope (OD of peptide below 4, 6 times of original peptide))
GELYFRAC [p4677, MV-002 mimotope peptide]	3 (strong binding :>320000)	
GELQFPPC [p4672, MV-002 mimotope peptide]	3 (strong binding :>320000)	

Substance	Binding Capacity (binding code; OD halfmax 1:X, dilution factor of the parental AB) [1]	further results
HMRMYFEC [p4687, MV-002 mimotope peptide]	3 (strong binding :>320000)	
AGEIYFERC [p4806, MV-002 mimotope peptide]	1 (weak binding :<40000)	
GMIVFPHC [p4679, MV-002 mimotope peptide]	3 (strong binding :>320000)	
HQKMIFC [p4794, MV-002 mimotope peptide]	2 (medium binding :40000-320000)	Inhibition Capacity (competition code) [2]: 1 (Weaker than original epitope (OD of peptide below 4, 6 times of original peptide))
SHQRLWFC [p4674, MV-002 mimotope peptide]	3 (strong binding :>320000)	Inhibition Capacity (competition code) [2]: 1 (Weaker than original epitope (OD of peptide below 4, 6 times of original peptide))
SGQLKFPC [p4413, MV-002 mimotope peptide]	1 (weak binding :<40000)	
SHTRLYFC [p4403, MV-002 mimotope peptide]	1 (weak binding :<40000)	unspecific immune response against unrelated sequence (p1454) [3]: failed to induce a relevant unspecific immune response; immune response against injected peptide [4]: elicited immune responses; immune response against the original epitope p4377 [5]: mounted detectable immune responses; inhibition in in vitro inhibition/competition assay [2]: without inhibition capacity
KLPLFVMC [p4691, MV-002 mimotope peptide]	1 (weak binding :<40000)	
GDLKFPLC [p4683, MV-002 mimotope peptide]	3 (strong binding :>320000)	
GQILFPVC [p4684, MV-002 mimotope peptide]	3 (strong binding :>320000)	
GELFFPKC [p4685, MV-002 mimotope peptide]	3 (strong binding :>320000)	
GEILFGMC [p4689, MV-002 mimotope peptide]	3 (strong binding :>320000)	Inhibition Capacity (competition code) [2]: 1 (Weaker than original epitope (OD of peptide below 4, 6 times of original peptide))
GQIMFPRC [p4686, MV-002 mimotope peptide]	3 (strong binding :>320000)	
CGEIYFER [p4807, MV-002 mimotope peptide]	1 (weak binding :<40000)	
QLPLFVLC [p4700, MV-002 mimotope peptide]	1 (weak binding :<40000)	
GQIQFPLC [p4697, MV-002 mimotope peptide]	3 (strong binding :>320000)	
GEIRFELC [p4796, MV-002 mimotope peptide]	2 (medium binding :40000-320000)	
SGEIHFNC [p4415, MV-002 mimotope peptide]	1 (weak binding :<40000)	
GQIIFQSC [p4668, MV-002 mimotope peptide]	2 (medium binding :40000-320000)	
EVHHQKLVFC [p4377, reference compound]		unspecific immune response against unrelated sequence (p1454) [3]: failed to induce a relevant unspecific immune response; immune response against injected peptide [4]: elicited immune responses; immune response against the original epitope p4377 [5]: mounted detectable immune responses
GEIRFGSC [p4696, MV-002 mimotope peptide]	3 (strong binding :>320000)	
GELWFPC [p4673, MV-002 mimotope peptide]	3 (strong binding :>320000)	Inhibition Capacity (competition code) [2]: 1 (Weaker than original epitope (OD of peptide below 4, 6 times of original peptide))
